System: rat femoral arteries (intimal hyperplasia)
Assay: Intimal hyperplasia in rat femoral arteries formed by photosensitization (rose bengal and green light)
Assay type: in vivo, Wistar rat
Details: left femoral artery, vs solvent group
Description: Under intraperitoneal anesthesia with pentobarbital (50 mg/mL/kg), a catheter was placed in the left cervical vein of a Wistar rat. The left femoral artery was detached, and the probe of an ultrasonic pulse Doppler blood flowmeter was placed on the artery. The artery proximal to the site of placement of the probe was irradiated with green light (540 nm, 800,000 1×) at a distance of 5 mm from the artery. A steady blood flow was confirmed after 10 minutes of start of the irradiation, and 15 mg/mL/kg of rose bengal was injected into the left cervical vein to damage the vascular endothelium. Then, the incision was sutured. Rats were divided in order as a solvent group (9 rats), a group (10 rats) to which 10 mg/kg of Compound A was administered, and a group (10 rats) to which 300 mg/kg of Cilostazol was administered. The drugs were suspended in 0.5% methylcellulose solution, adjusted so as to be administered at a dose of 5 mL/kg, and orally administered on the day of operation after confirmation of postoperative arousal, and then orally administered once a day in the morning for the subsequent three weeks. Three weeks after the operation, the left femoral artery was exposed under anesthesia. […] The medial areas and the intimal area in transverse sections of the femoral arteries were measured as indices of intimal hyperplasia with a computer image analyzer, and the ratio of the […] (the I/M ratio) was calculated. The results are expressed as average±standard deviation. The intimal areas and the I/M ratios were analyzed for distribution uniformity in each group by Bartlett's test. If the distribution was uniform, one-way analysis of variance was done, and the averages for the solvent group and the respective drug-treated groups were analyzed by Dunnett's test to determine if there was significant difference between them. When the distribution was not uniform, the Kruskal-Wallis rank test was done, and if there was significant difference between the solvent group and a drug-treated group, the average ranks for the two groups were analyzed by Dunnett's test. […]

[1] = 10 mg/kg orally once a day for three weeks, Dunnett's test p<0.05

| SMILES | intimal hyperplasia inhibitory action (intimal area and I/M ratio) (300 mg/kg orally once a day for three weeks) | I/M ratio [1] | area of the tunica intima (intimal area) [1] |
| --- | --- | --- | --- |
| O=C1CCc2cc(OCCCCc3nnnn3C3CCCCC3)ccc2N1 [Cilostazol, reference compound] | showed no action | – | – |
| Cl.O=c1[nH]nc(OCCCc2ccc(Cl)cc2)c(NCc2cccnc2)c1Br [Compound A, 4-bromo-6-[3-(4-chlorophenyl)propoxy]-5-(3-pyridylmethylamino)-3(2H)-pyridazinone hydrochloride] | – | significantly reduced | significantly reduced |

Reference: patent US20090155187A1, “DRUG FOR INHIBITING VASCULAR INTIMAL HYPERPLASIA” (Nissan Chemical Industries Ltd., priority 2004, published 2009)
